Values of other authors, collected in patent US4981869A, “Xanthates as antitumor agents” (priority 1980, dated 1991).

System: Herpes virus
Details: two immunosuppressed patients; Burns et al., The Lancet, Feb. 20, 1982; cited from earlier work

In the case of Nc1nc2c(ncn2COCCO)c(=O)[nH]1 [Acyclovir], the “susceptibility of herpes virus mutants arising under treatment” value is listed as “considerably less susceptible to treatment with that particular drug than the initially-recognized virus”.
